Test results taken from patent publication US9056832B2, “Pyridine compounds and the users thereof” (Purdue Pharma L.P., priority 2010, dated 2015).
Like-named read-outs stand apart in the source and are kept apart here.

Target: human Nav1.7 (Homo sapiens (Human), UniProt Q15858)
Assay: FLIPR or FLIPR TETRA sodium dye assay with KCl and test article pre-incubation
Format: cell-based
Conditions: read-out: Nav1.7 IC50 (μM) ± SEM
[1] = recombinant human Nav1.7 in HEK293 cells, CoroNa Green sodium dye, veratridine + scorpion venom

Sequence of human Nav1.7 (Q15858 other isoform, or with tags, fused parts or gaps): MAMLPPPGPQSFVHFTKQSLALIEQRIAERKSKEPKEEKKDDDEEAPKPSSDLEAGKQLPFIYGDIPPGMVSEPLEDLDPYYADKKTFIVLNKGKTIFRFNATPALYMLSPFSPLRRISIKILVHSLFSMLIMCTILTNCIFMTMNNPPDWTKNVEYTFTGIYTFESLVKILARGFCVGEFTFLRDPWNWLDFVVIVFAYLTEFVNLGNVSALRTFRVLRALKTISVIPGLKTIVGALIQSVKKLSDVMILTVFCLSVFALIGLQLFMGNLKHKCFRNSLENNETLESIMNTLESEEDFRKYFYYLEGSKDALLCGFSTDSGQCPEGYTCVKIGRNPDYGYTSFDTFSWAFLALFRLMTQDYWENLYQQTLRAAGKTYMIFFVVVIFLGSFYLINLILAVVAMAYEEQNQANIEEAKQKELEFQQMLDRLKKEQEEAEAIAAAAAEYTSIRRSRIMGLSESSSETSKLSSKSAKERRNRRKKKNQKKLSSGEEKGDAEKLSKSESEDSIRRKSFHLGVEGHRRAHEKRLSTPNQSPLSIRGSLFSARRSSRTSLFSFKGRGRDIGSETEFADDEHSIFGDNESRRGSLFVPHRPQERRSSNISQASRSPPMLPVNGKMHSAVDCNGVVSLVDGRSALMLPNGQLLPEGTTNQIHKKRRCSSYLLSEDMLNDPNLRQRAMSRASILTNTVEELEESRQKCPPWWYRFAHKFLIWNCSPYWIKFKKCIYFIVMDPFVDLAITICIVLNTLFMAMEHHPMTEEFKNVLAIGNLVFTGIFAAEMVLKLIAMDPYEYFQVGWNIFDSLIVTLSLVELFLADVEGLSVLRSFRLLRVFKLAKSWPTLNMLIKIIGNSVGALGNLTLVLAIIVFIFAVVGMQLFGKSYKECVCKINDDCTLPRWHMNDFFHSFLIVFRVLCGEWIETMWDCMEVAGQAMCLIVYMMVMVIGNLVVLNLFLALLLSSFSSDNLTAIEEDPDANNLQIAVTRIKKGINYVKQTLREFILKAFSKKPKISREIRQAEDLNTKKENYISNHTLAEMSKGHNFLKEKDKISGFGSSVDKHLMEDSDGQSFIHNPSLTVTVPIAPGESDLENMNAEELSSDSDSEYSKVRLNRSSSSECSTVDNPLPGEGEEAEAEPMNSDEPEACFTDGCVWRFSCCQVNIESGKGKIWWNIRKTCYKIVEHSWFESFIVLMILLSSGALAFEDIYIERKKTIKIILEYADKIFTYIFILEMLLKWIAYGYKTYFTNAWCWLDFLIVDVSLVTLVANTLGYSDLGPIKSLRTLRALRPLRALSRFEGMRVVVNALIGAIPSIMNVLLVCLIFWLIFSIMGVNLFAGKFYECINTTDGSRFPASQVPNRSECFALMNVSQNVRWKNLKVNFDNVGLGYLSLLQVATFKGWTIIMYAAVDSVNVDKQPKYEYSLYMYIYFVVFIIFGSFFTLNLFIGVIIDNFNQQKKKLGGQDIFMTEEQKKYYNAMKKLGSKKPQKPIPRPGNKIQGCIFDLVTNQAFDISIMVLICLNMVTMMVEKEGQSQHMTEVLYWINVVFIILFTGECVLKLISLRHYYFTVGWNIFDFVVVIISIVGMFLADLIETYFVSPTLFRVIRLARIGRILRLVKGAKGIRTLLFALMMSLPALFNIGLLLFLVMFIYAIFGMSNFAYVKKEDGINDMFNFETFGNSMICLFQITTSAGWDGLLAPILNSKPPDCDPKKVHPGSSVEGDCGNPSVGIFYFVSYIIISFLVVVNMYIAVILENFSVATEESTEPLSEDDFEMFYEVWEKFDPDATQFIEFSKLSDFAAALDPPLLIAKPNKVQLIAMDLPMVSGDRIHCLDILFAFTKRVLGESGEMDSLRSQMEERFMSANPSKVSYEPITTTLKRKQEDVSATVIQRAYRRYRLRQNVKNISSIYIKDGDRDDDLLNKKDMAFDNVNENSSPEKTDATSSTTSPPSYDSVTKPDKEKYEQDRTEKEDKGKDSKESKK

In the case of `N#CCCN(c1ccccc1)c1cc(-c2ccc(Oc3ccc(F)cc3)cc2)cc(C(=O)O)n1` [compound 94, 6-((2-cyanoethyl) (phenyl)amino)-4-(4-(4-fluorophenoxy)phenyl)picolinic acid], the IC50 [1] is reported as 2.17 ± 0.66 µM.

Compound `NC(=O)c1cc(-c2ccc(Oc3ccc(F)cc3)cc2)cc([C@H](O)CO)n1` [compound 95, (S)-6-(1,2-dihydroxyethyl)-4-(4-(4-fluorophenoxy)phenyl)picolinamide] has an IC50 [1] of 0.17 ± 0.08 µM.

Work on `NC(=O)c1cc(-c2ccc(Oc3ccc(F)cc3)cc2)cc([C@@H](O)CO)n1` [compound 96, (R)-6-(1,2-dihydroxyethyl)-4-(4-(4-fluorophenoxy)phenyl)picolinamide] yielded an IC50 [1] of 0.12 ± 0.03 µM.

`NC(=O)CN(c1ccccc1)c1cc(-c2ccc(Oc3ccc(F)cc3)cc2)cc(C(N)=O)n1` [compound 98, 6-((2-amino-2-oxoethyl)(phenyl)amino)-4-(4-(4-fluorophenoxy)phenyl)picolinamide] showed an IC50 [1] of 0.22 ± 0.07 µM.

With `N#Cc1cccc2c1ccn2-c1cc(C(N)=O)nc(-c2ccc(Oc3ccc(F)cc3)cc2)c1` [compound 99, 4-(4-cyano-1H-indol-1-yl)-6-(4-(4-fluorophenoxy)phenyl) picolinamide] the IC50 [1] was 0.1 ± 0.03 µM.

`N#Cc1cccc2c1ccn2-c1cc(-c2ccc(Oc3ccc(F)cc3)cc2)cc(C(N)=O)n1` [compound 100, 6-(4-cyano-1H-indol-1-yl)-4-(4-(4-fluorophenoxy)phenyl) picolinamide] showed an IC50 [1] of 0.27 ± 0.03 µM.

`N#Cc1cccc2c1ccn2-c1cc(C(=O)O)nc(-c2ccc(Oc3ccc(F)cc3)cc2)c1` [compound 101, 4-(4-cyano-1H-indol-1-yl)-6-(4-(4-fluorophenoxy)phenyl) picolinic acid] gave an IC50 [1] of 0.27 ± 0.08 µM.

`NC(=O)c1cc(CN2CCN(CC(=O)O)CC2)cc(-c2ccc(Oc3ccc(F)cc3)cc2)n1` [compound 104, 2-(4-((2-carbamoyl-6-(4-(4-fluorophenoxy)phenyl)pyridine-4-yl)methyl)piperazin-1-yl) acetic acid] showed an IC50 [1] of 2.7 ± 0.26 µM.

`O=C1NCCN1CCNCc1ccnc(-c2ccc(Oc3ccc(F)cc3)cc2)c1` [compound 105, 1-(2-(((2-(4-(4-fluorophenoxy)phenyl)pyridin-4-yl)methyl)amino)ethyl) imidazolidin-2-one] gave an IC50 [1] of 0.53 ± 0.08 µM.

`N#Cc1cc(CNCCN2CCNC2=O)cc(-c2ccc(Oc3ccc(F)cc3)cc2)n1` [compound 106, 6-(4-(4-fluorophenoxy)phenyl)-4-(((2-(2-oxoimidazolidin-1-yl)ethyl)amino)methyl) picolinonitrile] was tested, and the IC50 [1] was 2.01 ± 0.44 µM.

Compound `Cc1cc(C(=O)NCCN2CCCCC2)cc(-c2ccc(Oc3ccc(F)cc3)cc2)n1` [compound 107, 2-(4-(4-fluorophenoxy)phenyl)-6-methyl-N-(2-(piperidin-1-yl)ethyl) isonicotinamide] has an IC50 of 0.4 ± 0.12 µM.

In the case of `NC(=O)CN1CCN(c2cc(Cl)nc(-c3ccc(Oc4ccc(F)cc4)cc3)c2)CC1` [compound 109, 2-(4-(2-chloro-6-(4-(4-fluorophenoxy)phenyl)pyridine-4-yl)piperazin-1-yl) acetamide], the IC50 [1] is reported as 3.77 ± 0.56 µM.

`N#Cc1cc(NCCCn2ccnc2)cc(-c2ccc(Oc3ccc(F)cc3)cc2)n1` [compound 110, 4-((3-(1H-imidazol)-1-yl)propyl)amino)-6-(4-(4-fluorophenoxy) phenylpicolinonitrile] was tested, and the IC50 was 0.62 ± 0.08 µM.

`OC[C@H](O)c1cc(NCCN2CCOCC2)cc(-c2ccc(Oc3ccc(F)cc3)cc2)n1` [compound 111] gave an IC50 of 0.71 ± 0.13 µM.

Work on `N#Cc1cc([C@H](O)CO)cc(-c2ccc(Oc3ccc(F)cc3)cc2)n1` [compound 112, (S)-4-(1,2-dihydroxyethyl)-6-(4-(4-fluorophenoxy)phenyl)picolinonitrile] yielded an IC50 [1] of 2.12 ± 0.54 µM.

Compound `CN(c1ccccc1)c1cc(-c2ccc(Oc3ccc(F)cc3)cc2)cc(C(N)=O)n1` [compound 113, 4-(4-(4-fluorophenoxy)phenyl)-6-(methyl(phenyl)amino)picolinamide] has an IC50 [1] of 0.36 ± 0.8 µM.

`CN(c1ccccc1)c1cc(C(=O)O)nc(-c2ccc(Oc3ccc(F)cc3)cc2)c1` [compound 114, 6-(4-(4-fluorophenoxy)phenyl)-4-(methyl(phenyl)amino)picolinic acid] was tested, and the IC50 was 0.68 ± 0.6 µM.

Compound `N#CCCN(c1ccccc1)c1cc(-c2ccc(Oc3ccc(F)cc3)cc2)cc(C(N)=O)n1` [compound 115, 6-((2-cyanoethyl) (phenyl)amino)-4-(4-(4-fluorophenoxy)phenyl)picolinamide] has an IC50 [1] of 0.08 ± 0.03 µM.

In the case of `CN(c1ccc(C(=O)O)cc1)c1cc(-c2ccc(Oc3ccc(F)cc3)cc2)cc(C(N)=O)n1` [compound 116, 4-((6-carbamoyl-4-(4-(4-fluorophenoxy)phenyl)pyridin-2-yl) (methyl)amino)benzoic acid], the IC50 [1] is reported as 2.71 ± 0.73 µM.

`CN(c1ccc(C(=O)O)cc1)c1cc(C(=O)O)nc(-c2ccc(Oc3ccc(F)cc3)cc2)c1` [compound 117, 4-((4-carboxyphenyl)(methy)amino)-6-(4-(4-fluorophenoxy)phenyl) picolinic acid] was tested, and the IC50 was greater than 20 µM.

`N#CCCN(c1ccccc1)c1cc(C(=O)O)nc(-c2ccc(Oc3ccc(F)cc3)cc2)c1` [compound 118, 4-((2-cyanoethyl) (phenyl)amino)-6-(4-(4fluorophenoxy)phenyl)picolinic acid] showed an IC50 of 2.5 ± 0.3 µM.

`CN(c1ccccc1)c1cc(-c2ccc(Oc3ccc(F)cc3)cc2)cc(C(=O)O)n1` [compound 119, 4-(4-(4-fluorophenoxy)phenyl)-6-(methyl (phenyl)amino) picolinic acid] gave an IC50 [1] of 2.46 ± 0.8 µM.

`CN(c1ccc(C(=O)O)cc1)c1cc(-c2ccc(Oc3ccc(F)cc3)cc2)cc(C(=O)O)n1` [compound 120, 6-((4-carboxyphenyl) (methy)amino)-4-(4-(4-fluorophenoxy)phenyl) picolinic acid] gave an IC50 of 9.3 ± 0.54 µM.

`O=C(O)CN(c1ccccc1)c1cc(-c2ccc(Oc3ccc(F)cc3)cc2)cc(C(=O)O)n1` [compound 121, 6-((carboxymethyl) (phenyl)amino)-4-(4-(4-fluorophenoxy)phenyl)picolinic acid] was tested, and the IC50 [1] was 6.24 ± 0.81 µM.

`NC(=O)c1cc(C2=CCNCC2)cc(-c2ccc(Oc3ccc(F)cc3)cc2)n1` [compound 122, 6-(4-(4-fluorophenoxy)phenyl)-1′,2′,3′,6′-tetrahydro-[4,4'-bipyridine]-2-carboxamide] was tested, and the IC50 was 0.14 ± 0.03 µM.

For `NC(=O)c1cc([C@@H](O)CO)cc(-c2ccc(Oc3cc(Cl)ccc3F)cc2)n1` [compound 123, (R)-6-(4-(5-chloro-2-fluorophenoxy)phenyl)-4-(1,2-dihydroxyethyl) picolinamide], the IC50 [1] was 0.17 ± 0.03 µM.

`O=S(=O)(Nc1ccc(F)cc1)c1ccc(-c2cccc([C@H](O)CO)n2)cc1` [compound 124, (S)-4-(6-(1,2-dihydroxyethyl)pyridin-2-yl)-N-(4-fluorophenyl) benzenesulfonamide] showed an IC50 of 2.5 ± 0.34 µM.

`O=C(NC(CO)CO)c1cc(-c2ccc(Oc3ccc(F)cc3)cc2)cc(Cl)n1` [compound 125, 6-chloro-N-(1,3-dihydroxypropan-2-yl)-4-(4-(4-fluorophenoxy)phenyl)picolinamide] showed an IC50 [1] of 0.77 ± 0.13 µM.

Compound `N#Cc1cccc2c1ccn2-c1cc(-c2ccc(Oc3ccc(F)cc3)cc2)cc(C(=O)O)n1` [compound 126, 6-(4-cyano-1H-indol-1-yl)-4-(4-(4-fluorophenoxy)phenyl) picolinic acid] has an IC50 [1] of 1.05 ± 0.13 µM.

In the case of `N#Cc1ccc(Oc2ccc(-c3cc([C@@H](O)CO)cc(C(N)=O)n3)cc2)cc1C(F)(F)F` [compound 127, (R)-6-(4-(4-cyano-3-(trifluoromethyl)phenoxy)phenyl)-4-(1,2-dihydroxyethyl) picolinamide], the IC50 is reported as 1.13 ± 0.11 µM.

In the case of `NC(=O)c1cc(-c2ccc(Oc3ccc(F)cc3)cc2)cc(NC(CO)CO)n1` [compound 128, 6-((1,3-dihydroxypropan-2-yl)amino)-4-(4-(4-fluorophenoxy)phenyl) picolinamide], the IC50 [1] is reported as 1.29 ± 0.17 µM.

With `C[C@H](O)[C@@H](O)c1cc(C(N)=O)nc(-c2ccc(Oc3ccc(F)cc3)cc2)c1` [compound 129, 4-((1S,2S)-1,2-dihydroxypropyl)-6-(4-(4-fluorophenoxy)phenyl)picolinamide] the IC50 [1] was 1.74 ± 0.35 µM.

Work on `O=C(O)c1ccc2ccn(-c3cc(C(=O)O)nc(-c4ccc(Oc5ccc(F)cc5)cc4)c3)c2c1` [compound 130, 1-(2-carboxy-6-(4-(4-fluorophenoxy)phenyl)pyridin-4-yl)-1H-indole-6-carboxylic acid] yielded an IC50 [1] of 2.47 ± 0.73 µM.

Work on `C[C@@H](O)[C@H](O)c1cc(C(N)=O)nc(-c2ccc(Oc3ccc(F)cc3)cc2)c1` [compound 131, 4-((1R,2R)-1,2-dihydroxypropyl)-6-(4-(4-fluorophenoxy)phenyl)picolinamide] yielded an IC50 [1] of 2.78 ± 0.46 µM.

With `NC(=O)c1cc([C@@H](O)CO)cc(-c2ccc(Oc3ccc(C(F)(F)F)cn3)cc2)n1` [compound 132, (R)-4-(1,2-dihydroxyethyl)-6-(4-((5-(trifluoromethyl)pyridin-2-yl)oxy)phenyl)picolinamide] the IC50 [1] was 2.78 ± 0.75 µM.

Compound `NC(=O)c1cc(NC(CO)CO)cc(-c2ccc(Oc3ccc(F)cc3)cc2)n1` [compound 133, 4-((1,3-dihydroxypropan-2-yl)amino)-6-(4-(4-fluorophenoxy)phenyl) picolinamide] has an IC50 [1] of 3.08 ± 0.59 µM.

`NC(=O)c1cc(C[C@@H](O)CO)cc(-c2ccc(Oc3ccc(F)cc3)cc2)n1` [compound 134, (R)-4-(2,3-dihydroxypropyl)-6-(4-(4-fluorophenoxy)phenyl)picolinamide] was tested, and the IC50 [1] was 3.9 ± 0.34 µM.

Compound `NC(=O)c1cc(C[C@H](O)CO)cc(-c2ccc(Oc3ccc(F)cc3)cc2)n1` [compound 135, (S)-4-(2,3-dihydroxypropyl)-6-(4-(4-fluorophenoxy)phenyl)picolinamide] has an IC50 [1] of 7.26 ± 0.34 µM.

`NC(=O)c1cc(O)cc(-c2ccc(Oc3ccc(F)cc3)cc2)n1` [compound 136, 6-(4-(4-fluorophenoxy)phenyl)-4-hydroxy picolinamide] gave an IC50 greater than 20 µM.

In the case of `O=S(=O)(Nc1ccc(-c2cccc([C@H](O)CO)n2)cc1)c1ccc(F)cc1` [compound 137, (S)-N-(4-(6-(1,2-dihydroxyethyl)pyridin-2-yl)phenyl)-4-fluorobenzene sulfonamide], the IC50 [1] is reported as greater than 20 µM.

In the case of `NC(=O)c1cc([C@H](O)CO)cc(-c2ccc(Oc3ccc(Cl)cc3F)cc2)n1` [compound 140, (S)-6-(4-(4-chloro-2-fluorophenoxy)phenyl)-4-(1,2-dihydroxyethyl) picolinamide], the IC50 [1] is reported as 0.07 ± 0.01 µM.
